Experimental data reported in PubChem BioAssay AID200 (DTP/NCI, 2004).
“And” between values parts separate entries of the source, which are not always exact repeats. Equal entries are not always repeated. Inconclusive results and toxic doses are left out.

System: B6C3F1 mice, B16 melanoma ip, median survival T/C
Assay: NCI In Vivo Anticancer Drug Screen. Data for tumor model B16 Melanoma (intraperitoneal) in B6C3F1 mice
Conditions: endpoint: median survival time, higher = longer survival
In short: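 Values are T/C ratios: the measurement in treated animals divided by that in vehicle-treated controls, using survival or tumor size in mice carrying transplantable tumors.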

[1] = dose: 25.0 mg/kg/injection, schedule: Q01DX009 (ip), vehicle: Klucel (hydroxypropylcellulose) (HPC)
[2] = dose: 100.0 mg/kg/injection, schedule: Q01DX009 (ip), vehicle: Klucel (hydroxypropylcellulose) (HPC)
[3] = dose: 12.5 mg/kg/injection, schedule: Q01DX009 (ip), vehicle: saline with Tween-80
[4] = dose: 25.0 mg/kg/injection, schedule: Q01DX009 (ip), vehicle: saline with Tween-80
[5] = dose: 12.5 mg/kg/injection, schedule: Q01DX009 (ip), vehicle: Klucel (hydroxypropylcellulose) (HPC)
[6] = dose: 50.0 mg/kg/injection, schedule: Q01DX009 (ip), vehicle: Klucel (hydroxypropylcellulose) (HPC)
[7] = dose: 200.0 mg/kg/injection, schedule: Q01DX009 (ip), vehicle: Klucel (hydroxypropylcellulose) (HPC)
[8] = dose: 400.0 mg/kg/injection, schedule: Q01DX009 (ip), vehicle: Klucel (hydroxypropylcellulose) (HPC)
[9] = dose: 12.5 mg/kg/injection, schedule: Q01DX009 (ip), vehicle: saline
[10] = dose: 25.0 mg/kg/injection, schedule: Q01DX009 (ip), vehicle: saline
[11] = dose: 50.0 mg/kg/injection, schedule: Q01DX009 (ip), vehicle: saline
[12] = dose: 100.0 mg/kg/injection, schedule: Q01DX009 (ip), vehicle: saline
[13] = dose: 200.0 mg/kg/injection, schedule: Q01DX009 (ip), vehicle: saline
[14] = dose: 400.0 mg/kg/injection, schedule: Q01DX009 (ip), vehicle: saline

CC(C)CC(NC(=O)OCC1c2ccccc2-c2ccccc21)C(=O)O (stereo unspecified)
T/C [1]: 102 % of control
T/C [2]: 122 % of control and 101 % of control

C1OC1C1CO1 (stereo unspecified)
T/C (dose: 1.25 mg/kg/injection, schedule: Q01DX009 (ip), vehicle: saline): 92 % of control and 104 % of control
T/C (dose: 2.5 mg/kg/injection, schedule: Q01DX009 (ip), vehicle: saline): 91 % of control and 101 % of control (2×)
T/C (dose: 5.0 mg/kg/injection, schedule: Q01DX009 (ip), vehicle: saline): 113 % of control and 103 % of control and 105 % of control
T/C (dose: 10.0 mg/kg/injection, schedule: Q01DX009 (ip), vehicle: saline): 117 % of control and 122 % of control
T/C (dose: 20.0 mg/kg/injection, schedule: Q01DX009 (ip), vehicle: saline): 118 % of control and 121 % of control
T/C (dose: 40.0 mg/kg/injection, schedule: Q01DX009 (ip), vehicle: saline): 161 % of control

CCOC(=O)c1ccc(NC(=O)Nc2nncs2)cc1
T/C (dose: 6.25 mg/kg/injection, schedule: Q01DX009 (ip), vehicle: distilled water + Tween-80): 100 % of control
T/C (dose: 12.5 mg/kg/injection, schedule: Q01DX009 (ip), vehicle: distilled water + Tween-80): 110 % of control
T/C (dose: 25.0 mg/kg/injection, schedule: Q01DX009 (ip), vehicle: distilled water + Tween-80): 115 % of control
T/C (dose: 50.0 mg/kg/injection, schedule: Q01DX009 (ip), vehicle: distilled water + Tween-80): 121 % of control
T/C (dose: 100.0 mg/kg/injection, schedule: Q01DX009 (ip), vehicle: distilled water + Tween-80): 121 % of control
T/C (dose: 200.0 mg/kg/injection, schedule: Q01DX009 (ip), vehicle: distilled water + Tween-80): 105 % of control

CCCCNc1ccc2nnc(C)n2n1
T/C (dose: 50.0 mg/kg/injection, schedule: Q01DX009 (ip), vehicle: DMSO): 98 % of control and 102 % of control
T/C (dose: 100.0 mg/kg/injection, schedule: Q01DX009 (ip), vehicle: DMSO): 110 % of control and 92 % of control
T/C (dose: 200.0 mg/kg/injection, schedule: Q01DX009 (ip), vehicle: DMSO): 92 % of control

CN=S(=O)(OCCCCCOS(=O)(=NC)c1ccccc1)c1ccccc1 (stereo unspecified)
T/C [3]: 112 % of control and 201 % of control
T/C [4]: 119 % of control
T/C (dose: 100.0 mg/kg/injection, schedule: Q01DX009 (ip), vehicle: saline with Tween-80): 198 % of control

CCCCC(=O)OCC1OC(n2cnc3c(=S)nc[nH]c32)C(OC(=O)CCCC)C1OC(=O)CCCC (stereo unspecified)
T/C (dose: 6.25 mg/kg/injection, schedule: Q01DX009 (ip), vehicle: saline with Tween-80): 102 % of control
T/C [3]: 105 % of control
T/C [4]: 108 % of control
T/C (dose: 50.0 mg/kg/injection, schedule: Q01DX009 (ip), vehicle: saline with Tween-80): 92 % of control

N=C(N)c1ccc(/C=C/c2ccc(C(=N)N)cc2)cc1
T/C (dose: 16.0 mg/kg/injection, schedule: Q01DX009 (ip), vehicle: Klucel (hydroxypropylcellulose) (HPC)): 101 % of control
T/C (dose: 32.0 mg/kg/injection, schedule: Q01DX009 (ip), vehicle: Klucel (hydroxypropylcellulose) (HPC)): 116 % of control
T/C (dose: 32.0 mg/kg/injection, schedule: Q01DX009 (ip), vehicle: saline with Tween-80): 101 % of control
T/C (dose: 64.0 mg/kg/injection, schedule: Q01DX009 (ip), vehicle: Klucel (hydroxypropylcellulose) (HPC)): 97 % of control
T/C (dose: 64.0 mg/kg/injection, schedule: Q01DX009 (ip), vehicle: saline with Tween-80): 101 % of control

C=C(NC(=O)C(=C)NC(=O)c1csc(C2=NC3c4csc(n4)C4NC(=O)c5csc(n5)C(C(C)(O)C(C)O)NC(=O)C5CSC(=N5)/C(=C/C)NC(=O)C(C(C)O)NC(=O)c5csc(n5)C3(CC2)NC(=O)C(C)NC(=O)C(=C)NC(=O)C(C)NC(=O)C(C(C)CC)NC2C=Cc3c(C(C)O)cc(nc3C2O)C(=O)OC4C)n1)C(N)=O (stereo unspecified)
T/C [5]: 116 % of control
T/C [1]: 104 % of control
T/C [6]: 105 % of control
T/C [2]: 107 % of control
T/C [7]: 96 % of control
T/C [8]: 99 % of control

CC(C)(C)OC(=O)NC(Cc1ccc(O)cc1)C(=O)O (stereo unspecified)
T/C [2]: 108 % of control
T/C [7]: 103 % of control
T/C [8]: 97 % of control

Cc1ccnc(NN=O)c1
T/C (dose: 3.12 mg/kg/injection, schedule: Q01DX009 (ip), vehicle: water): 99 % of control
T/C (dose: 6.25 mg/kg/injection, schedule: Q01DX009 (ip), vehicle: water): 100 % of control

CC(Br)C(=O)NC(Cc1ccccc1)C(=O)O (stereo unspecified)
T/C [9]: 104 % of control
T/C [10]: 95 % of control
T/C [11]: 102 % of control

NC(CCCCNC=O)C(=O)O (stereo unspecified)
T/C [12]: 110 % of control
T/C [13]: 121 % of control
T/C [14]: 116 % of control

Cc1nnc2ncccn12
T/C [9]: 97 % of control and 106 % of control
T/C [10]: 96 % of control and 103 % of control
T/C [11]: 98 % of control and 100 % of control
T/C [12]: 97 % of control and 103 % of control
T/C [13]: 94 % of control and 97 % of control
T/C [14]: 90 % of control and 102 % of control

COc1ccc(-c2c3c(cc4cc5c(cc24)OCO5)C(=O)OC3)cc1OC
T/C (dose: 6.0 mg/kg/injection, schedule: Q01DX009 (ip), vehicle: Klucel (hydroxypropylcellulose) (HPC)): 100 % of control
T/C (dose: 12.0 mg/kg/injection, schedule: Q01DX009 (ip), vehicle: Klucel (hydroxypropylcellulose) (HPC)): 117 % of control and 105 % of control
T/C (dose: 24.0 mg/kg/injection, schedule: Q01DX009 (ip), vehicle: Klucel (hydroxypropylcellulose) (HPC)): 88 % of control and 99 % of control

Cc1cc(N2C(=O)CCSC2=S)ccc1Cl
T/C [5]: 92 % of control and 95 % of control
T/C [1]: 90 % of control and 98 % of control
T/C [6]: 94 % of control
T/C [2]: 94 % of control and 98 % of control
T/C [7]: 90 % of control and 97 % of control

CC(C)(C#CC(C)(C)OC(=O)Nc1ccccc1)OC(=O)Nc1ccccc1
T/C [12]: 106 % of control
T/C [13]: 100 % of control
T/C [14]: 98 % of control

COc1cc([NH-])c([NH-])cc1OC.[Cl][Pt+2][Cl]
T/C (dose: 20.0 mg/kg/injection, schedule: Q01DX009 (ip), vehicle: saline with Tween-80): 100 % of control
T/C (dose: 40.0 mg/kg/injection, schedule: Q01DX009 (ip), vehicle: saline with Tween-80): 101 % of control
T/C (dose: 80.0 mg/kg/injection, schedule: Q01DX009 (ip), vehicle: saline with Tween-80): 112 % of control

CS(=O)(=O)OCCn1c(=O)n(CCOS(C)(=O)=O)c(=O)n(CCOS(C)(=O)=O)c1=O
T/C [2]: 97 % of control
T/C [7]: 95 % of control
T/C [8]: 86 % of control

CSc1cc(C)[o+]c(C)c1
T/C [5]: 106 % of control
T/C [1]: 105 % of control
T/C [6]: 106 % of control
T/C [2]: 109 % of control
T/C [7]: 101 % of control

CCN(CC)CCn1[nH]c2c3ccc(=O)cc3sc3c(NCCN)ccc1c32
T/C (dose: 1.56 mg/kg/injection, schedule: Q01DX009 (ip), vehicle: water): 161 % of control
T/C (dose: 1.7 mg/kg/injection, schedule: Q01DX009 (ip), vehicle: water): 189 % of control
T/C (dose: 2.7 mg/kg/injection, schedule: Q01DX009 (ip), vehicle: water): 225 % of control
T/C (dose: 4.5 mg/kg/injection, schedule: Q01DX009 (ip), vehicle: water): 270 % of control
T/C (dose: 7.5 mg/kg/injection, schedule: Q01DX009 (ip), vehicle: water): 281 % of control
T/C (dose: 12.5 mg/kg/injection, schedule: Q01DX009 (ip), vehicle: water): 161 % of control and 264 % of control

CC(C)(C)SCC(NC(=O)OCC1c2ccccc2-c2ccccc21)C(=O)O (stereo unspecified)
T/C [1]: 91 % of control
T/C [6]: 97 % of control
T/C [2]: 91 % of control and 92 % of control

CC(C)CCC(=O)c1ccoc1
T/C (dose: 0.12 mg/kg/injection, schedule: Q03HX027 (ip), vehicle: saline with Tween-80): 100 % of control
T/C (dose: 0.25 mg/kg/injection, schedule: Q01DX009 (ip), vehicle: saline with Tween-80): 100 % of control
T/C (dose: 0.25 mg/kg/injection, schedule: Q03HX027 (ip), vehicle: saline with Tween-80): 98 % of control
T/C (dose: 0.5 mg/kg/injection, schedule: Q01DX009 (ip), vehicle: saline with Tween-80): 100 % of control
T/C (dose: 0.5 mg/kg/injection, schedule: Q03HX027 (ip), vehicle: saline with Tween-80): 107 % of control
T/C (dose: 1.0 mg/kg/injection, schedule: Q01DX009 (ip), vehicle: saline with Tween-80): 102 % of control
T/C (dose: 1.0 mg/kg/injection, schedule: Q03HX027 (ip), vehicle: saline with Tween-80): 88 % of control
T/C (dose: 2.0 mg/kg/injection, schedule: Q01DX009 (ip), vehicle: saline with Tween-80): 102 % of control
T/C (dose: 2.0 mg/kg/injection, schedule: Q03HX027 (ip), vehicle: saline with Tween-80): 107 % of control

Cc1c(-c2ccc(C3CCCCC3)cc2)nc2ccc(F)cc2c1C(=O)O
T/C [1]: 121 % of control
T/C [2]: 155 % of control
T/C [7]: 150 % of control
T/C [8]: 160 % of control and 179 % of control
